Data taken from patent US11208412B2 (DAEGU-GYEONGBUK MEDICAL INNOVATION FOUNDATION, priority 2017, dated 2021).

Assays:
Assay in all cases: Kinase selectivity, DiscoverX scanMAX Kinase assay panel (% control)
Assay type in all cases: binding
[1] = molecular target: T1, kinases of the scanMAX Kinase assay panel (Plasmodium falciparum, UniProt P61075); settings: PFPK5(P. falciparum); 1 uM
T1 construct: purchased DiscoverX Co. (contract measurement) scanMAX Kinase assay panel
Summary of the method: (§1)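 Binding-panel profiling at one concentration, 1 uM in DMSO; values are % of DMSO control after subtracting the positive-control floor. Less than 35% means activity on that kinase.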

[2] = molecular target: T2, kinases of the scanMAX Kinase assay panel (Homo sapiens, UniProt O94768); settings: DRAK2; 1 uM
T2 construct: purchased DiscoverX Co. (contract measurement) scanMAX Kinase assay panel
T2 sequence (O94768 1-372): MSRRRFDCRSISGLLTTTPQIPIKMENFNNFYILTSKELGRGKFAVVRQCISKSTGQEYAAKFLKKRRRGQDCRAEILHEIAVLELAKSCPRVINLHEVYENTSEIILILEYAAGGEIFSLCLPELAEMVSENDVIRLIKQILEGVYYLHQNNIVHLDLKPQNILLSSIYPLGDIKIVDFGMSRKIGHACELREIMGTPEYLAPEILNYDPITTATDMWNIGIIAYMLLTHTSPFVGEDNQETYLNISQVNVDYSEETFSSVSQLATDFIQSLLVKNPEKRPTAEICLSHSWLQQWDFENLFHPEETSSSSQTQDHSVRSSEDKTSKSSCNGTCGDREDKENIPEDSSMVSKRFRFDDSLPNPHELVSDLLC
Summary of the method: as §1

[3] = molecular target: T3, kinases of the scanMAX Kinase assay panel (Homo sapiens, UniProt Q06418); settings: kinase TYRO3; 1 uM in DMSO
T3 construct: purchased DiscoverX Co. (contract measurement) scanMAX Kinase assay panel
T3 sequence (Q06418 41-890): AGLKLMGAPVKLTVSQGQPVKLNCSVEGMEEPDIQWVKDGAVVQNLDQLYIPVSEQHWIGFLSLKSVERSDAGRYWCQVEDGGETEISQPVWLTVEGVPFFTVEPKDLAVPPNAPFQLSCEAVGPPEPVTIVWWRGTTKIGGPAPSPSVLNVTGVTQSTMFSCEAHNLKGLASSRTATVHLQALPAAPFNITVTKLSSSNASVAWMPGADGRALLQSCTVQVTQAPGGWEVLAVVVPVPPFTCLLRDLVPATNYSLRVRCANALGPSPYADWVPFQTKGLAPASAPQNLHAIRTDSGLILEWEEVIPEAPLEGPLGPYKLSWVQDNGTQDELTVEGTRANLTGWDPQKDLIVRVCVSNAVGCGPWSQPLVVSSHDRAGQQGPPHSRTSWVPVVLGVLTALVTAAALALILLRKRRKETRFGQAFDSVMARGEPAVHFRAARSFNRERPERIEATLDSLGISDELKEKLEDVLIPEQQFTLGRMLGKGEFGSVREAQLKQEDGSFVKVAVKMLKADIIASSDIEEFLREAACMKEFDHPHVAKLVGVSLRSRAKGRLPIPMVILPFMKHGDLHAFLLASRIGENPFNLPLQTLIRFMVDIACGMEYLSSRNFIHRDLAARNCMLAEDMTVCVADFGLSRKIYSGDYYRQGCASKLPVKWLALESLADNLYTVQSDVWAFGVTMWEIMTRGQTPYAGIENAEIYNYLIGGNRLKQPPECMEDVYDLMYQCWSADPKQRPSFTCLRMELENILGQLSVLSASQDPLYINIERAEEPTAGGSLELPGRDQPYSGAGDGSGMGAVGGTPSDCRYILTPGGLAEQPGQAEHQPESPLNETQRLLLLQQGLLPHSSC
Summary of the method: as §1

[4] = molecular target: T4, kinases of the scanMAX Kinase assay panel (Homo sapiens, UniProt P54756); settings: EPHA5; 1 uM
T4 construct: purchased DiscoverX Co. (contract measurement) scanMAX Kinase assay panel
T4 sequence (P54756 25-1037): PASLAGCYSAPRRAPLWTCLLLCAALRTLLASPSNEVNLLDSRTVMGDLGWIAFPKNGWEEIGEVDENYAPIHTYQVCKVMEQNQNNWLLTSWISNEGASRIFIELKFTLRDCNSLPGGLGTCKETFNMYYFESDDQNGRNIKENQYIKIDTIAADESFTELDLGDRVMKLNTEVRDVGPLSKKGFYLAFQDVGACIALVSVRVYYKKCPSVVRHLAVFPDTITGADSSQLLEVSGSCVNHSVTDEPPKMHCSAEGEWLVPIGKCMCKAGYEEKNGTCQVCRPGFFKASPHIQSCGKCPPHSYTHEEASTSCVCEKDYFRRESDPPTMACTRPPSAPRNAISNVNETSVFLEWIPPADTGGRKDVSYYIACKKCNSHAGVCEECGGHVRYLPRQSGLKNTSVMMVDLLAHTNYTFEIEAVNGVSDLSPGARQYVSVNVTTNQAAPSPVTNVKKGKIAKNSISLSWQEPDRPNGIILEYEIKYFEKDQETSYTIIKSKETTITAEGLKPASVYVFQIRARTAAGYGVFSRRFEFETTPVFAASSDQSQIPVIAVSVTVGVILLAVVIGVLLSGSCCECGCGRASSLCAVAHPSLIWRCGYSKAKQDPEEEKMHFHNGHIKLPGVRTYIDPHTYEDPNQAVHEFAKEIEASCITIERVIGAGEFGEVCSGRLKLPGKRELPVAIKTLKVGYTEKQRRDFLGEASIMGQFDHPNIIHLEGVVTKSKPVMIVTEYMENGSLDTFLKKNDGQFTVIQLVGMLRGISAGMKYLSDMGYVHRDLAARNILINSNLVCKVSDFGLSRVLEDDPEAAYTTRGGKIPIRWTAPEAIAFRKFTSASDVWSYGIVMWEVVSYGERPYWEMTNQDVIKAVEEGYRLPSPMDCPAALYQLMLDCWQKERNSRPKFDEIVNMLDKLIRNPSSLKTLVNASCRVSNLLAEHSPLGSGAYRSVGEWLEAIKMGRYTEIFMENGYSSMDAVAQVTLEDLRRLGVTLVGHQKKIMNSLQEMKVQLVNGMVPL
Summary of the method: as §1

[5] = molecular target: T5, kinases of the scanMAX Kinase assay panel (Homo sapiens, UniProt P28482); settings: ERK2; 1 uM
T5 construct: purchased DiscoverX Co. (contract measurement) scanMAX Kinase assay panel
T5 sequence (P28482 whole entry): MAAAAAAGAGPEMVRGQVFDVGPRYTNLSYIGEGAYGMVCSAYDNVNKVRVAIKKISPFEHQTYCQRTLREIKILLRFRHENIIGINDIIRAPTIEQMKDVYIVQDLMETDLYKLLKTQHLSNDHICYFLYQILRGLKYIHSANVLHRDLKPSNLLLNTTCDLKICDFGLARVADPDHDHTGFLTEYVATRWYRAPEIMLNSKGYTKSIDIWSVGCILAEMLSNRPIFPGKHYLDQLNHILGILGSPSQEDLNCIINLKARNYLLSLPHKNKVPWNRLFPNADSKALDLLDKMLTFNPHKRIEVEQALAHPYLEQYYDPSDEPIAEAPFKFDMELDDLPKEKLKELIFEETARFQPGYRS
Summary of the method: as §1

[6] = molecular target: T6, kinases of the scanMAX Kinase assay panel (Homo sapiens, UniProt P36888, D835Y); settings: FLT3(D835Y); 1 uM
T6 construct: purchased DiscoverX Co. (contract measurement) scanMAX Kinase assay panel
T6 sequence (P36888 27-993 D835Y): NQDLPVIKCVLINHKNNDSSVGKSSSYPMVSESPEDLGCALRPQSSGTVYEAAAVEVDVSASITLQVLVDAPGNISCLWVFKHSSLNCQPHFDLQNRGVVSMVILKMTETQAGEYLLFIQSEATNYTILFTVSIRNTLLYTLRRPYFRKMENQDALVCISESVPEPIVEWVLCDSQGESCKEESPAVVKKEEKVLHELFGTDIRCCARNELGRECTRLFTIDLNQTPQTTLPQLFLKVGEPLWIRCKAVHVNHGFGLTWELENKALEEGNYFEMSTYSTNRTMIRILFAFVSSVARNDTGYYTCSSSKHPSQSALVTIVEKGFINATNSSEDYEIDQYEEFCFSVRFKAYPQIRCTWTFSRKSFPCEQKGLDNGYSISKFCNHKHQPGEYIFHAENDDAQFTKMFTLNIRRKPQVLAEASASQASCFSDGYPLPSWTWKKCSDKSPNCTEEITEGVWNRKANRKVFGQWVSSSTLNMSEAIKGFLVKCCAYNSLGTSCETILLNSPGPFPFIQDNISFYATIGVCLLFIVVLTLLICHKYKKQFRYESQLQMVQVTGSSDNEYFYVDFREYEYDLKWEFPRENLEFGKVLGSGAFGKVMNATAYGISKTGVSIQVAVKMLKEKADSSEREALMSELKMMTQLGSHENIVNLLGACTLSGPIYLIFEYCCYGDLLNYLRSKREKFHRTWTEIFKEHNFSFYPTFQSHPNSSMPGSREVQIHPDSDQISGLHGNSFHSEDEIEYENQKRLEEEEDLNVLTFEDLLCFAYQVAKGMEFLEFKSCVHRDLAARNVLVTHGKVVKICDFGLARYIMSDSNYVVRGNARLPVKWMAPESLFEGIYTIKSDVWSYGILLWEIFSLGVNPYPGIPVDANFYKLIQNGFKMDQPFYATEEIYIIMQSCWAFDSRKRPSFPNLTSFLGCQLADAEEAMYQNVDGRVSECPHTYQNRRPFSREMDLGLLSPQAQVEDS
Summary of the method: as §1

[7] = molecular target: T7, kinases of the scanMAX Kinase assay panel (Homo sapiens, UniProt P07948); settings: LYN; 1 uM
T7 construct: purchased DiscoverX Co. (contract measurement) scanMAX Kinase assay panel
T7 sequence (P07948 whole entry): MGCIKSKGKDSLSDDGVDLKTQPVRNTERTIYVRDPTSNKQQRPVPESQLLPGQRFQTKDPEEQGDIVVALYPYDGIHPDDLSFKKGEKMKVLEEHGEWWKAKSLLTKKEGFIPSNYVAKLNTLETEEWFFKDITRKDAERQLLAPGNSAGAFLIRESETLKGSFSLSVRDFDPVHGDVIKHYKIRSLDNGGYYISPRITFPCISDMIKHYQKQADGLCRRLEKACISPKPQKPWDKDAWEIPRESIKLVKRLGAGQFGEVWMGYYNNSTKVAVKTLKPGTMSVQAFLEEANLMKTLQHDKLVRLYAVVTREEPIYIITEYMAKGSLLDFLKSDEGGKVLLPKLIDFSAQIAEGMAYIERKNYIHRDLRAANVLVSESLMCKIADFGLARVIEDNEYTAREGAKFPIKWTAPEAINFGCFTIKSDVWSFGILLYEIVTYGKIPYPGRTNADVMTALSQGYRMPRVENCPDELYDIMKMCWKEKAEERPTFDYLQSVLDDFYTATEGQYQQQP
Summary of the method: as §1

T1 sequence (P61075 whole entry): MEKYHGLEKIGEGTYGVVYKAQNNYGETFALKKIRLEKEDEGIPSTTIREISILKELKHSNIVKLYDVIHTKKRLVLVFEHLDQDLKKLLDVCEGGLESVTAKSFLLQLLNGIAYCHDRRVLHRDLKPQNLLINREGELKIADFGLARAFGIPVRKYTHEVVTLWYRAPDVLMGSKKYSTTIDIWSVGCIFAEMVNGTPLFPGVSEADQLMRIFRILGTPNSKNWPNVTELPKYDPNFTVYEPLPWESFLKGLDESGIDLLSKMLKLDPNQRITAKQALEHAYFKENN

SMILES	remaining binding at 1 µM [1] [%]	remaining binding at 1 µM [2] [%]	remaining binding at 1 µM [3] [%]	remaining binding at 1 µM [4] [%]	remaining binding at 1 µM [5] [%]	remaining binding at 1 µM [6] [%]	remaining binding at 1 µM [7] [%]
CCNc1nc(Nc2ccc(C(=O)N3CCC(N4CCOCC4)CC3)cc2OC)nc2[nH]cc(C(F)(F)F)c12 [Example 104, (4-((4-(ethylamino)-5-(trifluoromethyl)-7H-pyrrolo[2,3-d]pyrimidine-2-yl)amino)-3-methoxyphenyl)(4-morpholinopiperidine-1-yl)methanone]	100	15	100	100	100	14	100
CC1(Nc2nc(Nc3cnn([C@H]4CCN(C5COC5)C[C@@H]4F)c3Cl)nc3[nH]cc(C#N)c23)CC1 [Example 52, 2-((5-chloro-1-((3S,4S)-3-fluoro-1-(oxetane-3-yl)piperidine-4-yl)-1H-pyrazole-4-yl)amino)((1-methylcyclopropyl)amino)-7H-pyrrolo[2,3-d]pyrimidine-5-carbonitrile]	100	1.2	45	79	54	0	36
CNc1nc(Nc2ccc(C(=O)N3CCOCC3)cc2OC)nc2[nH]cc(C#N)c12 [Example 1, 2-((2-methoxy-4-(morpholine-4-carbonyl)phenyl)amino)-4-(methylamino)-7H-pyrrolo[2,3-d]pyrimidine-5-carbonitrile]	76	13	100	87	86	82	90
